What was measured:
[1] = system: A549; test: Cytotoxicity against human A549 cells after 48 hrs by MTT assay; type: functional, cell-based; details: A549, 48 h
[2] = system: SW480; test: Cytotoxicity against human SW480 cells after 48 hrs by MTT assay; type: functional, cell-based; details: SW480, 48 h
[3] = system: HL-60; test: Cytotoxicity against human HL60 cells after 48 hrs by MTT assay; type: functional, cell-based; details: HL-60, 48 h
[4] = system: SMMC-7721; test: Cytotoxicity against human SMMC7721 cells after 48 hrs by MTT assay; type: functional, cell-based; details: SMMC-7721, 48 h
[5] = system: MCF7; test: Cytotoxicity against human MCF7 cells after 48 hrs by MTT assay; type: functional, cell-based; details: MCF7, 48 h
[6] = system: SMMC-7721; test: Ratio of DDP IC50 to compound IC50 for human SMMC7721 cells; type: functional

## c1ccc2oc(-c3ccc(-n4ccnc4)cc3)cc2c1
[1]
  IC50: > 40 µM
[2]
  IC50: > 40 µM
[3]
  IC50: > 40 µM
[4]
  IC50: > 40 µM
[5]
  IC50: > 40 µM

## c1ccc(C[n+]2ccn(-c3ccc(-c4cc5ccccc5o4)cc3)c2)cc1
[1]
  IC50: 25.4 µM
[2]
  IC50: 19.9 µM
[3]
  IC50: 5.37 µM
[4]
  IC50: 15.1 µM
[5]
  IC50: 26.9 µM

## Brc1ccccc1C[n+]1ccn(-c2ccc(-c3cc4ccccc4o3)cc2)c1
[1]
  IC50: 9.77 µM
[2]
  IC50: 12.7 µM
[3]
  IC50: 1.97 µM
[4]
  IC50: 4.38 µM
[5]
  IC50: 14.3 µM

## C=CC[n+]1ccn(-c2ccc(-c3cc4ccccc4o3)cc2)c1
[1]
  IC50: 33.5 µM
[2]
  IC50: > 40 µM
[3]
  IC50: 14.5 µM
[4]
  IC50: 27 µM
[5]
  IC50: 13.7 µM

## CCCC[n+]1ccn(-c2ccc(-c3cc4ccccc4o3)cc2)c1
[1]
  IC50: 21.7 µM
[2]
  IC50: > 40 µM
[3]
  IC50: 11.8 µM
[4]
  IC50: 12.7 µM
[5]
  IC50: 31.4 µM

## O=C(C[n+]1ccn(-c2ccc(-c3cc4ccccc4o3)cc2)c1)c1ccccc1
[1]
  IC50: 12.9 µM
[2]
  IC50: 10.3 µM
[3]
  IC50: 2.61 µM
[4]
  IC50: 3.71 µM
[5]
  IC50: 11.9 µM

## O=C(C[n+]1ccn(-c2ccc(-c3cc4ccccc4o3)cc2)c1)c1ccc(O)cc1
[1]
  IC50: > 40 µM
[2]
  IC50: > 40 µM
[3]
  IC50: > 40 µM
[4]
  IC50: > 40 µM
[5]
  IC50: > 40 µM

## COc1ccc(C(=O)C[n+]2ccn(-c3ccc(-c4cc5ccccc5o4)cc3)c2)cc1
[1]
  IC50: 9.79 µM
[2]
  IC50: 6.93 µM
[3]
  IC50: 2.26 µM
[4]
  IC50: 3.71 µM
[5]
  IC50: 11.3 µM

## O=C(C[n+]1ccn(-c2ccc(-c3cc4ccccc4o3)cc2)c1)c1ccc(F)cc1
[1]
  IC50: 19.7 µM
[2]
  IC50: 16.8 µM
[3]
  IC50: 12.3 µM
[4]
  IC50: 13.5 µM
[5]
  IC50: 16.7 µM

## O=C(C[n+]1ccn(-c2ccc(-c3cc4ccccc4o3)cc2)c1)c1ccc(Br)cc1
[1]
  IC50: 8.46 µM
[2]
  IC50: 2.85 µM
[3]
  IC50: 3.15 µM
[4]
  IC50: 3.39 µM
[5]
  IC50: 2.84 µM

## O=C(C[n+]1ccn(-c2ccc(-c3cc4ccccc4o3)cc2)c1)c1ccc2ccccc2c1.[Br-]
[1]
  IC50: 10.9 µM
[2]
  IC50: 3.38 µM
[3]
  IC50: 2.49 µM
[4]
  IC50: 1.65 µM
[5]
  IC50: 5.87 µM
[6]
  Ratio IC50: 5.4

## O=C(c1ccccc1)C(c1ccccc1)[n+]1ccn(-c2ccc(-c3cc4ccccc4o3)cc2)c1 (stereo unspecified)
[1]
  IC50: 6.79 µM
[2]
  IC50: 6.93 µM
[3]
  IC50: 2.7 µM
[4]
  IC50: 3.31 µM
[5]
  IC50: 6.9 µM
